Laboratory results reported in PubChem BioAssay AID256 (DTP/NCI, 2004).
Where “and” joins values, the source holds several entries; their conditions need not be identical. Equal entries are not always repeated. Inconclusive results and toxic doses are left out. Rule for the calls: active = survival T/C of 150% or more; inactive = T/C below 125% in these data.

Tested on: CD2F1 mice, L1210 leukemia ip, survival T/C
Test: NCI In Vivo Anticancer Drug Screen. Data for tumor model L1210 Leukemia (intraperitoneal) in CD2F1 (CDF1) mice
Conditions: higher = longer survival
Method in brief: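 Antitumor effect is scored in animals hosting a serially transplanted tumor. Values compare compound-dosed animals against vehicle-only controls as a simple quotient.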

[1] = endpoint: mean survival time, dose: 100.0 mg/kg/injection, schedule: Q01DX009 (ip), vehicle: saline with Tween-80
[2] = endpoint: mean survival time, dose: 100.0 mg/kg/injection, schedule: Q04DX003 (ip), vehicle: saline with Tween-80
[3] = endpoint: mean survival time, dose: 200.0 mg/kg/injection, schedule: Q04DX003 (ip), vehicle: saline with Tween-80
[4] = endpoint: mean survival time, dose: 400.0 mg/kg/injection, schedule: Q04DX003 (ip), vehicle: saline with Tween-80

Measured: T/C

CC1=NN(c2ccccc2)C(=O)C1N=Nc1ccccc1S(=O)(=O)O (stereo unspecified)
inactive: [1] 103 % of control | [2] 97 % of control | endpoint: mean survival time, dose: 200.0 mg/kg/injection, schedule: Q01DX009 (ip), vehicle: saline with Tween-80 97 % of control | [3] 103 % of control | endpoint: mean survival time, dose: 400.0 mg/kg/injection, schedule: Q01DX009 (ip), vehicle: saline with Tween-80 101 % of control | [4] 112 % of control

c1cc2c3c(c1)nc(CCc1nc4cccc5c4n1CCC5)n3CCC2
inactive: endpoint: mean survival time, dose: 25.0 mg/kg/injection, schedule: Q01DX009 (ip), vehicle: saline with Tween-80 100 % of control | endpoint: mean survival time, dose: 50.0 mg/kg/injection, schedule: Q01DX009 (ip), vehicle: saline with Tween-80 91 % of control | [1] 92 % of control

CN(C)C(=O)NCCN(CCNC(=O)N(C)C)C(=O)N(C)C
inactive: [2] 98 % of control | [3] 96 % of control | [4] 94 % of control

[Cl][Pt+2][Cl].[NH-]C1CCCC1.[NH-]C1CCCC1
inactive: endpoint: mean survival time, dose: 5.0 mg/kg/injection, schedule: Q01DX009 (ip), vehicle: Klucel (hydroxypropylcellulose) (HPC) 103 % of control | endpoint: mean survival time, dose: 10.0 mg/kg/injection, schedule: Q01DX009 (ip), vehicle: Klucel (hydroxypropylcellulose) (HPC) 104 % of control | endpoint: mean survival time, dose: 20.0 mg/kg/injection, schedule: Q01DX009 (ip), vehicle: Klucel (hydroxypropylcellulose) (HPC) 116 % of control and 104 % of control and 108 % of control | endpoint: mean survival time, dose: 20.0 mg/kg/injection, schedule: Q04DX003 (ip), vehicle: Klucel (hydroxypropylcellulose) (HPC) 103 % of control | endpoint: mean survival time, dose: 40.0 mg/kg/injection, schedule: Q01DX001 (ip), vehicle: Klucel (hydroxypropylcellulose) (HPC) 96 % of control | endpoint: mean survival time, dose: 40.0 mg/kg/injection, schedule: Q01DX009 (ip), vehicle: Klucel (hydroxypropylcellulose) (HPC) 115 % of control and 104 % of control | endpoint: mean survival time, dose: 40.0 mg/kg/injection, schedule: Q04DX003 (ip), vehicle: Klucel (hydroxypropylcellulose) (HPC) 103 % of control | endpoint: mean survival time, dose: 80.0 mg/kg/injection, schedule: Q01DX001 (ip), vehicle: Klucel (hydroxypropylcellulose) (HPC) 105 % of control | endpoint: mean survival time, dose: 80.0 mg/kg/injection, schedule: Q01DX009 (ip), vehicle: Klucel (hydroxypropylcellulose) (HPC) 121 % of control and 124 % of control | endpoint: mean survival time, dose: 80.0 mg/kg/injection, schedule: Q04DX003 (ip), vehicle: Klucel (hydroxypropylcellulose) (HPC) 111 % of control | endpoint: mean survival time, dose: 160.0 mg/kg/injection, schedule: Q01DX001 (ip), vehicle: Klucel (hydroxypropylcellulose) (HPC) 102 % of control | endpoint: mean survival time, dose: 160.0 mg/kg/injection, schedule: Q01DX009 (ip), vehicle: Klucel (hydroxypropylcellulose) (HPC) 115 % of control | endpoint: mean survival time, dose: 160.0 mg/kg/injection, schedule: Q04DX003 (ip), vehicle: Klucel (hydroxypropylcellulose) (HPC) 111 % of control | endpoint: mean survival time, dose: 320.0 mg/kg/injection, schedule: Q01DX001 (ip), vehicle: Klucel (hydroxypropylcellulose) (HPC) 106 % of control | endpoint: mean survival time, dose: 320.0 mg/kg/injection, schedule: Q01DX009 (ip), vehicle: Klucel (hydroxypropylcellulose) (HPC) 115 % of control and 103 % of control | endpoint: mean survival time, dose: 320.0 mg/kg/injection, schedule: Q04DX003 (ip), vehicle: Klucel (hydroxypropylcellulose) (HPC) 108 % of control | endpoint: mean survival time, dose: 640.0 mg/kg/injection, schedule: Q01DX001 (ip), vehicle: Klucel (hydroxypropylcellulose) (HPC) 114 % of control

O=C([O-])C1OC([n+]2ccccc2)C(O)C(O)C1O (stereo unspecified)
inactive: endpoint: median survival time, dose: 12.5 mg/kg/injection, schedule: Q01DX005 (ip), vehicle: saline 101 % of control | endpoint: median survival time, dose: 25.0 mg/kg/injection, schedule: Q01DX005 (ip), vehicle: saline 100 % of control | endpoint: median survival time, dose: 50.0 mg/kg/injection, schedule: Q01DX005 (ip), vehicle: saline 107 % of control | endpoint: median survival time, dose: 100.0 mg/kg/injection, schedule: Q01DX005 (ip), vehicle: saline 112 % of control | endpoint: median survival time, dose: 200.0 mg/kg/injection, schedule: Q01DX005 (ip), vehicle: saline 102 % of control

CN1CCN(CCSSCCN2CCN(C)CC2)CC1
inactive: endpoint: mean survival time, dose: 50.0 mg/kg/injection, schedule: Q01DX009 (ip), vehicle: saline sonified 97 % of control | endpoint: mean survival time, dose: 100.0 mg/kg/injection, schedule: Q01DX009 (ip), vehicle: saline sonified 97 % of control | [2] 105 % of control | endpoint: mean survival time, dose: 200.0 mg/kg/injection, schedule: Q01DX009 (ip), vehicle: saline sonified 98 % of control | [3] 100 % of control

Cc1n[nH]c2ccc([N+](=O)[O-])cc2c1=O
inactive: [1] 89 % of control

COC(=O)CC1(C)C(=O)CCC2(C)C1=CCc1ccc(OC)cc12 (stereo unspecified)
inactive: endpoint: mean survival time, dose: 100.0 mg/kg/injection, schedule: Q01DX001 (sc), vehicle: steriod suspending solution 102 % of control | endpoint: mean survival time, dose: 200.0 mg/kg/injection, schedule: Q01DX001 (sc), vehicle: steriod suspending solution 96 % of control | endpoint: mean survival time, dose: 400.0 mg/kg/injection, schedule: Q01DX001 (sc), vehicle: steriod suspending solution 101 % of control

CCOC1(C)CCC/C(=N/Nc2ccc([N+](=O)[O-])cc2[N+](=O)[O-])C1 (stereo unspecified)
inactive: endpoint: mean survival time, dose: 100.0 mg/kg/injection, schedule: Q04DX003 (ip), vehicle: Klucel (hydroxypropylcellulose) (HPC) 97 % of control | endpoint: mean survival time, dose: 200.0 mg/kg/injection, schedule: Q04DX003 (ip), vehicle: Klucel (hydroxypropylcellulose) (HPC) 100 % of control | endpoint: mean survival time, dose: 400.0 mg/kg/injection, schedule: Q04DX003 (ip), vehicle: Klucel (hydroxypropylcellulose) (HPC) 100 % of control
